From US20110223149A1, “PEPTIDOMIMETIC MACROCYCLES” (AILERON THERAPEUTICS, INC., priority 2009, published 2011) come the findings set out here.

Where a SMILES comes first, the peptide text is derived from it. Bridges are numbered along the chain shown (N, C = ends). [ ]: non-standard residue; d: D form. S5 = C=CCCC[C@](C)(N)C(=O)O

One data set deals with Cathepsin D (Homo sapiens, UniProt P07339). The data set is classed as in vitro ADME. Particulars: pH 4.4. The method, then: For identification of Cathepsin B, D, and L metabolism, parent cross-linked peptide and positive control linear peptide (4 mM each in DMSO) was separately aliquoted (5 μL) to 1 mL volumes of 67 mM ammonium acetate solutions buffered either to pH 5.4 (cat B, L) and add 10 mM DTT, or to pH 4.4 (cat D) and add 0.117M KCl. Single enzyme working solution (10 μg/mL) was then added (40 μL) to each peptide solution (20 μM) to yield initial weight ratio (%) of 1:20 for each enzyme and peptide pair. Each mixture was placed in a 38-40° C. oven for incubation times of 30 and 60 min. At each time point, the reaction was stopped by addition of 500 μL of 48:48:2 v/v(%) hexafluoro-2-propanol/acetonitrile/TFA. A biphasic mixture formed after mixing and the bottom layer liquid was diluted (1:10) into acetonitrile: water and subsequently injected in duplicate for gradient LC/Ion Mobility TOF-MS analyses.
Chain of Cathepsin D (P07339 65-412, species assumed): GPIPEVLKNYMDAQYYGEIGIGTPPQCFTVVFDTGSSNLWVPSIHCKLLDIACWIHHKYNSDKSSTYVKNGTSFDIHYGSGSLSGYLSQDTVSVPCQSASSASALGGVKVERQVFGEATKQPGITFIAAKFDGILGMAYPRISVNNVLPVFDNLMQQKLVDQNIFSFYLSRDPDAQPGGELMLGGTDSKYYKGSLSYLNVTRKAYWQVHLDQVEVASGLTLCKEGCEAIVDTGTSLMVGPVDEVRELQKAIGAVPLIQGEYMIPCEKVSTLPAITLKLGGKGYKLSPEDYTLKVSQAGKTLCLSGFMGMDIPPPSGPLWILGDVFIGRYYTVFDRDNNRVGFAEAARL
Ion mobility-MS and MS-MS analysis and peptide sequencing were performed on a Waters (Milford, Mass.) Synapt high-resolution ion-mobility-time-of flight mass spectrometer. Samples were prepared by dilution of the unpurified cross-linked peptide proteolysis product samples 10-fold into 1:1 acetonitrile-water containing 0.1% formic acid. LC-MS analyses were performed by reverse-phase gradient elution with 0.1% formic acid and 0.1% formic acid in acetonitrile as eluants at 500 μL/min. […]

The next data set addresses Bcl-xL (Homo sapiens, UniProt Q07817). Kind of data set: Protein-ligand binding experiment by SEC-LC-MS. Particulars: 1 μM SP-4 and 5 μM Bcl-xL, 60 min at room temperature. The method, then:
Protein-ligand binding experiments for Bcl-xL. Simple protein-ligand binding experiments were conducted using the following representative procedure outlined for a simple system-wide control experiment using 1 μM SP-4 and 5 μM Bcl-xL. A 1 μL, DMSO aliquot of a 40 μM stock solution of SP-4 is dissolved in 19 μL of PBS (Phosphate-buffered saline: 50 mM, pH 7.5 Phosphate buffer containing 150 mM NaCl). The resulting solution is mixed by repeated pipetting and clarified by centrifugation at 10 000 g for 10 min. To a 4 μL, aliquot of the resulting supernatant is added 4 μL, of 10 μM BCL-xL in PBS. Each 8.0 μL experimental sample thus contains 40 pmol (1.5 μg) of protein at 5.0 μM concentration in PBS plus 1 μM SP-4 and 2.5% DMSO. Duplicate samples thus prepared for each concentration point are incubated for 60 min at room temperature, and then chilled to 4° C. prior to size-exclusion chromatography-LC-MS analysis of 5.0 μL injections. Samples containing a target protein, protein-ligand complexes, and unbound compounds are injected onto an SEC column, where the complexes are separated from non-binding component by a rapid SEC step. The SEC column eluate is monitored using UV detectors to confirm that the early-eluting protein fraction, which elutes in the void volume of the SEC column, is well resolved from unbound components that are retained on the column. […]
A general note: In gel filtration, larger molecules generally elute earlier.

Chain of Bcl-xL (Q07817 whole entry, species assumed): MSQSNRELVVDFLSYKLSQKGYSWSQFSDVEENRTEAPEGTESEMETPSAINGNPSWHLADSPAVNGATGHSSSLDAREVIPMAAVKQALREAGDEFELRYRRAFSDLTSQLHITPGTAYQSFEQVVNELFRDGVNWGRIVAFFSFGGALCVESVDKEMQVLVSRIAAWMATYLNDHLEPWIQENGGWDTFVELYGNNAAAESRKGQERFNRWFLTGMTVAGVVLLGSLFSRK

Regarding `CC[C@H](C)[C@H](NC(=O)[C@H](Cc1c[nH]c2ccccc12)NC(=O)[C@H](CCCNC(=N)N)NC(C)=O)C(=O)N[C@@H](C)C(=O)N[C@@H](CCC(N)=O)C(=O)N[C@@H](C)C(=O)N[C@@H](CC(C)C)C(=O)N[C@@H](CCCNC(=N)N)C(=O)N[C@@]1(C)CCC/C=C\CCC[C@@](C)(C(=O)N[C@@H](Cc2ccccc2)C(=O)N[C@@H](CC(N)=O)C(=O)N[C@@H](C)C(=O)N[C@@H](Cc2ccccc2)C(=O)N[C@@H](Cc2ccc(O)cc2)C(=O)N[C@@H](C)C(=O)N[C@@H](CCCNC(=N)N)C(=O)N[C@@H](CCCNC(=N)N)C(N)=O)NC(=O)[C@H](CC(=O)O)NC(=O)CNC(=O)[C@H]([C@@H](C)CC)NC1=O` [SP-1, Ac-RWIAQALR$IGD$FNAFYARR-NH2] (Ac-RWIAQALR[S5]IGD[S5]FNAFYARR-NH2; staple (Z) 9-13), the “cleavage site by cathepsin-D (proteolysis products)” value on Cathepsin D was “at F—Y residues”.

For Ac-IWIAQALR$IGD$FNAYYARR-NH2 [SP-4], the “detection of protein-ligand complex with Bcl-xL” value on Bcl-xL was “detection of the protein-ligand complex”.
